Experimental data reported in patent US20110293745A1, “AURORA KINASE INHIBITORS” (SUNESIS PHARMACEUTICALS, INC., priority 2008, published 2011).

Legend:
[1] = tested on: cleaved PARP in HCT 116 xenograft tumors; test: PARP cleavage in tumor lysates (western blotting); format: in vivo, mouse; details: single IP dose 170 mg/kg
Description: (§1) PARP cleavage was measured in HCT 116 (colon carcinoma) and MV-4-11 tumor lysates by western blotting. […] HCT 116 tumors were collected 3, 6 and 12 hrs post dosing; MV-4-11 tumors were collected at 2, 6 and 24 hrs post dosing. […] Tumors were lysed in cell extraction buffer (Biosource # FNN0011) containing protease inhibitors (Sigma # P2714), and PMSF Phenylmethanesulfonyl fluoride (PMSF) [#P7626, Sigma]. Forty micrograms of protein for each sample was loaded and run on 4-12% Tris-Glycine NuPAGE gel (Invitrogen), in Novex Tris-Glycine running buffer (Invitrogen). After gel separation, proteins were electro-transferred to a PVDF membrane (Invitrogen).

[2] = tested on: cleaved PARP in MV-4-11 xenograft tumors; test: PARP cleavage in tumor lysates (western blotting); format: in vivo, mouse; details: single IP dose 50 mg/kg or 100 mg/kg; 2, 6, 24 hrs
Description: as §1

[3] = tested on: histone H3 phosphorylation in femur bone marrow; test: pHH3 immunohistochemistry in mouse bone marrow; format: in vivo; details: for bone marrow cells positive for pHH3, times less evident than vehicle: 170 mg/kg IP BIW×3
Description: For each study, animals were randomized by tumor volume and distributed into groups of ten animals each. […] Inhibition of histone H3 (HH3) phosphorylation was evaluated in HCT 116 xenograft tumors, mouse femur bone marrow, and mouse skin punch biopsy sections by immunohistochemistry (IHC). […] The tumors were collected 6 hrs post-dose on day 4, 11, 18 and on day 25 (one week after completion of dosing phase of the experiment). Phosphorylated histone H3 (pHH3) was detected by immunohistochemistry staining of tissue sections with the antibody # 9701 (Cell Signaling Technology, Inc.), which recognizes phosphorylation of Ser10 residue in histone H3 protein.

[4] = tested on: HCT 116 tumor xenograft; test: Microscopy of tumor sections (Caspase-3, H&E); format: in vivo, mouse; details: 170 mg/kg twice-weekly for three weeks
Description: The studies in Examples 20, 21, and 22 used female mice nu/nu athymic mice. Compound 1 was formulated fresh each week for dosing.
HCT 116 colorectal carcinoma cells were implanted in the animals' right hind flanks subcutaneously with 200 μL of a 2.5×10^7 cells/mL suspension [1:1 Dulbecco's PBS (DPBS) with cells:Matrigel™. For each of the studies of compound distribution, pHH3 levels, and tumor section microscopy, after the tumors reached an average volume of 500 mm^3, the animals were weighed and sorted into randomized groups before initial dosing. Dosing schedules are provided separately for each of the studies in Examples 28, 29, and 30.
Following the treatment, tumors were harvested, placed in Streck fixative, paraffin embedded, sectioned, and transferred to slides. Tumor sections were stained with hematoxylin and eosin (H&E). Hematoxylin stains negatively charged nucleic acid structures, such as nuclei and ribosomes, blue, whereas eosin stains proteins pink. Treatments were administered on Day 1, 4, 8, 11, 15, and 18, with tumors being excised Day 4, 11, 18, and 25 of the study. All images in this Figure were taken at 40× magnification.

[5] = tested on: broad panel of cancer cell lines; test: cells; details: Homo sapiens, 96 h, read-out: anti-proliferative IC50 values
[6] = tested on: panel of 219 kinases; details: read-out: IC50 of the remaining 197 kinases
[7] = tested on: phospho-histone H3 in HCT 116 cells; test: Phospho-histone H3 staining (High Content Screening); format: cell-based; details: Homo sapiens
Description: Analysis of phospho-histone H3 (pHH3) levels was performed on adherent cells using high-content screening methodology. […]. This series was diluted 1000× in RPMI-1640 containing 10% FBS (1× treatment concentration: 10 μM-0.0002 μM). […].
Then, medium was aspirated and cells were incubated in 100 μL/well 4% formaldehyde for 15 min at room temperature.
[…]. […] Data were fit to an IC50 equation. […]. Cells were trypsinized, collected, lysed, and analyzed by immunoblotting.

[8] = tested on: HeLa; test: cells; details: Homo sapiens, 96 h, read-out: BrdU IC50
Description: (§2) Cellular proliferation was assessed using the Cell Proliferation ELISA, bromodeoxyuridine (BrdU) kit (Roche) including reagents, according to the kit protocol.

[9] = tested on: H1299; test: cells; details: Homo sapiens, NCI-H1299, 96 h, read-out: BrdU IC50
Description: as §2

[10] = tested on: PC3; test: cells; details: Homo sapiens, PC-3, 96 h, read-out: BrdU IC50
Description: as §2

[11] = tested on: A375; test: cells; details: Homo sapiens, A-375, 96 h, read-out: BrdU IC50
Description: as §2

[12] = tested on: A2780; test: cells; details: Homo sapiens, A2780, 96 h, read-out: BrdU IC50
Description: as §2

[13] = tested on: MDA-MB-231; test: cells; details: Homo sapiens, MDA-MB-231, 96 h, read-out: BrdU IC50
Description: as §2

[14] = tested on: HCT116; test: cells; details: Homo sapiens, HCT-116, 96 h, read-out: BrdU IC50
Description: as §2

[15] = tested on: Calu-6; test: cells; details: Homo sapiens, Calu-6, 96 h, read-out: BrdU IC50
Description: as §2

[16] = tested on: A2780 ovarian cancer xenograft; test: In vivo efficacy, mouse xenograft
Description: Percent TGI is then calculated with the following equation: […]
Time To Endpoint (TTE) was calculated for each individual animal to reach the predetermined study end point where the tumor volume becomes 1200 mm^3 or 10% of body weight or a greater than 20% body weight loss for two sequential measurements. The TTE is calculated and the median value is recorded for the group. Tumor Growth Delay (TGD) is then calculated with the following equation: […]
A2780 ovarian cancer cells [200 μL of a 2.5×10^7 cells/mL suspension (1:1 DPBS with cells:Matrigel)] were implanted subcutaneously in the right hind flank of mice. After 7 days, when tumors reached an average volume of approximately 130 mm^3, animals were weighed, randomized by tumor volume (l×w×h×0.52), and assigned to the various study groups before initial dosing.

With `CS(=O)(=O)O.O=C(Nc1cccc(Cl)c1)Nc1ncc(CCNc2ncnc3ccsc23)s1` [Compound 1, 1-(3-chlorophenyl)-3-{5-[2-(thieno[3,2-d]pyrimidin-4-ylamino)ethyl]thiazo}-urea] the “time after dose PARP cleavage is maintained” value [1] was “at least 12 hr”, the “time after dose at which PARP cleavage became evident” value [1] was 3 h and the PARP cleavage [2] was “dose- and time-dependent”. For the same compound, the “bone marrow cells positive for pHH3, times less evident than vehicle” value ([3]; day 11) was 3 times, the “bone marrow cells positive for pHH3, times less evident than vehicle” value ([3]; day 18) was 7 times and the “Histone H3 phosphorylation in bone marrow” value ([3]; day 25) was “recovered to normal levels”. For the same compound, the “large polyploid cells in tumor” value [4] was “appeared by Day 4 and persisted for at least 25 days”, the “caspase-3 positive cells in tumor versus vehicle” value ([4]; up to 18 days) was “significant increase” and the IC50 [5] was 2 to 10 nM. For the same compound, the IC50 [6] was ≥ 1000 nM, the EC50 ([7]; HCT 116, 1 hour treatment, read-out: EC50 of the reduction of pHH3) was ~9 nM and the IC50 ([7]; HCT 116, 1 hour, pHH3 staining) was 9 nM. It also gave an IC50 [8] of 9.3 nM, an IC50 [9] of 4 nM and an IC50 [10] of 4.4 nM. For the same compound, the IC50 [11] was 5.9 nM, the IC50 [12] was 1.8 nM and the IC50 [13] was 8.1 nM. For the same compound, the IC50 [14] was 6.4 nM, the IC50 [15] was 13.3 nM and the “% TGI” value ([16]; 42.5 mg/kg biw × 3) was 0%. For the same compound, the TGD ([16]; 42.5 mg/kg biw × 3) was 0 days, the “% TGI” value ([16]; 85 mg/kg biw × 3) was 9.8% and the TGD ([16]; 85 mg/kg biw × 3) was 3.5 days. For the same compound, the “% TGI” value ([16]; 170 mg/kg biw × 3) was 53.8% and the TGD ([16]; 170 mg/kg biw × 3) was 9 days.
